Results: patent US20100003217A1, “Compounds and Pharmaceutical Compositions for the Treatment of Viral Infections” (priority 2008, published 2010)

Tests used:
[1] = Cytotoxicity (MTS assay), 184R-A cells; type: cell-based; details: human, 184R-A cells (S282T), 184R-A (S282T), N = 3
Protocol: (§1) Cells were plated and treated with inhibitors as described above.

[2] = Cytotoxicity (MTS assay), 184R-D2 cells; type: cell-based; details: human, 184R-D2 cells (S282T), 184R-D2 (S282T), N = 3
Protocol: as §1

[3] = test system: CYP3A4; assay: Effect of CYP3A4 inhibitors (ketoconazole, ritonavir) on metabolic stability in rat liver microsomes; type: in vitro ADME; details: rat microsomes 1 mg/mL, 60 min, 10 μM, NADPH
Protocol: Incubations were conducted in a final volume of 0.1 mL per incubation time point. […] Final solvent (DMSO or methanol) concentration was maintained at 0.2%. Reactions were initiated by the addition of an NADPH regenerating system (1.3 mM NADP^+, 3.3 mM glucose-6-phosphate, 0.4 U/ml glucose-6-phosphate dehydrogenase, and 3.3 mM MgCl2, final concentrations). Incubations with no inhibitor served as control. Reactions were terminated at 30 min (monkey) or 60 min (rat and human) by the addition of 0.2 mL of stop solution (acetonitrile). The samples were vortex-mixed for 30 sec and then centrifuged at 10,000×g for 10 min. The supernatant was dried using a Labconco CentriVap concentrator and the dry residue reconstituted in water, transferred to an HPLC glass vial and analyzed by HPLC-UV method 1 (described above).
Because Compound 1 is rapidly metabolized in monkey liver microsomes, incubation conditions were adjusted by reducing protein content to 0.5 mg/mL and incubation time to 30 min. Incubation conditions for rat and human were unchanged; protein was 1 mg/mL and incubation time was 60 min.

[4] = test system: GS4.1 cells; assay: Cytotoxicity of Compound 1 and RBV on GS4.1 cells using MTS assay (combination study); details: three days, 0.6× to 1.5× EC50, alone or in combination
Protocol: The readout of the assay was measured by the bioreduction of the yellow MTS tetrazolium compound to a purple formazan product. This conversion is mediated by NADPH or NADH in metabolically active cells and is therefore directly proportional to the number of live cells in a culture. Plates were setup as described above.
Cells were plated and treated with inhibitors using the drug matrix described above.
After three days of drug treatment, 20 μL of MTS was added to each well, and then plates were incubated at 37° C./5% CO2.

[5] = target: CYP1A2 (Homo sapiens, UniProt P05177); assay: Incubation with human recombinant CYP450 supersomes, 1A2; type: in vitro ADME; details: CYP450 1A2 supersomes, 60 min, 10 μM, average of two experiments
Protocol: (§2) Supersomes—Incubations were conducted in a final volume of 0.1 mL reaction buffer (50-100 mM potassium phosphate, pH 7.4 or 100 mM Tris-HCL, pH 7.4) according to protocol provided with each CYP450 supersome. Each reaction contained […] of CYP450 supersome, 1.3 mM NADP^+, 3.3 mM glucose-6-phosphate, 0.4 U/mL glucose-6-phosphate dehydrogenase, 3.3 mM MgCl2 and 10 μM Compound 1. Following incubation for 60 min at 37° C., 100 μL of stop solution (acetonitrile:methanol; 1:1) was added and samples centrifuged for 10 min at 10,000×g. The supernatant was then dried and reconstituted in 10 mM potassium phosphate, pH 5, further transferred to an HPLC glass vial and analyzed by HPLC-UV (described above).

[6] = Radiochemical purity of the test article in dose formulations before and after dosing; type: physicochemical; details: PEG 200 with 5% DMSO
Protocol: Two dose formulations (50 mg/mL for the IV dose Groups 1A-C and 100 mg/mL for the PO dose Groups 2A-C) were prepared in PEG 200 containing 5% DMSO. Subsamples of the dose formulations were removed before and after the dose administration. An aliquot (10 μL) of each subsample was diluted by adding methanol (490 μL) and 20 mM ammonium formate in water (1500 μL). The diluted dose formulations were analyzed for determination of radiochemical purity by HPLC method 1.
Two dose formulations (50 mg/kg for the IV dose Groups 1A-C and 100 mg/kg for the PO dose Groups 2A-C) were prepared by the following procedure. Both formulations were prepared in PEG 200 containing 5% DMSO. The required amount of radioactive material was weighed and ground to a fine powder with a spatula. 30% of the final volume of PEG 200 and the weighed test article was added to a formulation vial while stirring under magnetic agitation to obtain a uniform formulation. The final volume was made up with PEG 200. The formulation was sonicated at room temperature for 15 minutes or longer to obtain homogenous suspension. The cycles of sonication/agitation were continued until the formulation was homogeneous. Triplicate aliquots were removed for determination of homogeneity (CV). The radioactivity concentration of the formulation was determined and specific activity was calculated.
The dose aliquots were analyzed by HPLC method 1 after diluting 10 μL of each formulation with 490 μL of methanol and 1.5 mL of the aqueous mobile phase.

[7] = target: CYP2C19 (Homo sapiens, UniProt P33261); assay: Incubation with human recombinant CYP450 supersomes, 2C19; type: in vitro ADME; details: CYP450 2C19 supersomes, 60 min, 10 μM, average of two experiments
Protocol: as §2

Sequence of CYP1A2 (P05177 whole entry): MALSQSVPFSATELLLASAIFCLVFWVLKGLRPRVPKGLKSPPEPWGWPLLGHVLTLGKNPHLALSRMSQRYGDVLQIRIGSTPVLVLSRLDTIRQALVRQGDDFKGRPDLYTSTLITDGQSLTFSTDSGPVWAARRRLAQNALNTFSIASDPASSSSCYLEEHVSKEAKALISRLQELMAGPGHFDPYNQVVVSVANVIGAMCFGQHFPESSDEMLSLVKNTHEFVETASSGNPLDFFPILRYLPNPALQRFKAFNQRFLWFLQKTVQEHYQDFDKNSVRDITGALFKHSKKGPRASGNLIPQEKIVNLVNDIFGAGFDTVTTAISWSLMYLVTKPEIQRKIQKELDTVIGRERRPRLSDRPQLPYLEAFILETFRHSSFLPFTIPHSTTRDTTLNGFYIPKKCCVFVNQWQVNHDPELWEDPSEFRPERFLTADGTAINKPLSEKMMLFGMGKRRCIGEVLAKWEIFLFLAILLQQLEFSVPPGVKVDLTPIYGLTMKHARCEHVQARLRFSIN
Sequence of CYP2C19 (P33261 whole entry): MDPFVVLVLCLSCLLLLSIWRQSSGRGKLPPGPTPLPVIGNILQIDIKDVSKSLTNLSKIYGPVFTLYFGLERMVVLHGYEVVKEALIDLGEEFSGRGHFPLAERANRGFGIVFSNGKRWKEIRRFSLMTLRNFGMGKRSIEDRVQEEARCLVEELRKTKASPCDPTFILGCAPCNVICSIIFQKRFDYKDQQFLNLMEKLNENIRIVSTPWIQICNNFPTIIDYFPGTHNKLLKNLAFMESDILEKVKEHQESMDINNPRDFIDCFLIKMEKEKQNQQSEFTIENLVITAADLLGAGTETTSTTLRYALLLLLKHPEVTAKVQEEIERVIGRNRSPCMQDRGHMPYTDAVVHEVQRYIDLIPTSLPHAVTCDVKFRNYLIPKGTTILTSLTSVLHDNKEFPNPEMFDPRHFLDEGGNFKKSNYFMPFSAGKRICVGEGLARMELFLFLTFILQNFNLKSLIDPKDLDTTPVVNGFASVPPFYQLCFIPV

CC(C)(CO)C(=O)SCCOP(=O)(NCc1ccccc1)OC[C@H]1O[C@@H](n2cnc3c(=O)[nH]c(N)nc32)[C@](C)(O)[C@@H]1O (mixture of isomers) [Compound 1, 3-hydroxy-2,2-dimethyl-thiopropionic acid S-(2-{[(2R,3R,4R,5R)-5-(2-amino-6-oxo-1,6-dihydro-purin-9-yl)-3,4-dihydroxy-4-methyl-tetrahydro-furan-2-ylmethoxy]-benzylamino-phosphoryloxy}-ethyl) ester]
CC50 at 3 days [1]: > 100 µM
CC50 at 3 days [2]: > 100 µM
% Residual Compound 1 ([3]; Ketoconazole 0.1 μM): 83%
% Residual Compound 1 ([3]; Ketoconazole 1 μM): 120%
% Residual Compound 1 ([3]; Ritonavir 0.1 μM): 101%
% Residual Compound 1 ([3]; Ritonavir 1 μM): 123%
% Residual Compound 1 ([3]; inhibitor 0 μM): 86%
in vitro cytotoxicity (MTS) [4]: no evidence of in vitro cytotoxicity
% Residual Compound 1 [5]: 104%
Radiochemical Purity of the test article in dose formulation (total of two isomers) ([6]; IV formulation, Groups 1A-C, Postdose): 99.1%
Radiochemical Purity of the test article in dose formulation (total of two isomers) ([6]; IV formulation, Groups 1A-C, Predose): 99.0%
Radiochemical Purity of the test article in dose formulation (total of two isomers) ([6]; PO formulation, Groups 2A-C, Postdose): 98.9%
Radiochemical Purity of the test article in dose formulation (total of two isomers) ([6]; PO formulation, Groups 2A-C, Predose): 98.6%
% Residual Compound 1 [7]: 111%
